Publication PMC6916368, “Cell‐Based Optimization of Covalent Reversible Ketoamide Inhibitors Bridging the Unprimed to the Primed Site of the Proteasome β5 Subunit” (Chemmedchem, 2019)

How the values were obtained:
Jurkat cells = assay: Cell viability endpoint assay (Celltiter Blue, 72 h); type: cell-based; settings: Homo sapiens, mean±SD from two independent experiments
Method in brief: (§1)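 Proteasome inhibitors were tested at 1 nM to 10 μM final on 50.000 cells/well in RPMI-1640 with 0.1 % FBS, plated overnight beforehand, at 37 °C and 5 % CO2. Reagent was incubated 120 minutes before the fluorescence read. IC50 came from a sigmoidal fit of technical triplicates, as the mean of two independent experiments.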

MV4‐11 cells = assay: as above; type: cell-based; settings: Homo sapiens, MV4-11, mean±SD from two independent experiments
Method in brief: as §1

THP‐1 cells = assay: as above; type: cell-based; settings: Homo sapiens, mean±SD from two independent experiments
Method in brief: as §1

[1] = biological target: T1, β5c subunit of isolated human 20S proteasome (Homo sapiens, UniProt P28074); assay: Proteasome inhibition assay (20 S Proteasome Assay Kit, Suc‐LLVY‐AMC); type: biochemical
T1 construct: purchased Enzo Life Sciences
Method in brief: (§2)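 Isolated human 20S proteasome (200 ng/well) preincubated 30 min with inhibitor, then 100 μM final Suc-LLVY-AMC (β5c, β5i) or Z-LLE-AMC (β1c) added for 60 min; fluorescence read. Residual activity at 100 nM final (n=3; β5c, β5i) or 1 μM (n=1, incl. β1c). IC50s: technical duplicates, mean of three experiments.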

[2] = biological target: T2, β5i subunit of isolated human 20S proteasome (Homo sapiens, UniProt P28062); assay: as above; type: biochemical
T2 construct: purchased Enzo Life Sciences
Method in brief: as §2

[3] = biological target: T3, β1c subunit of isolated human 20S proteasome (Homo sapiens, UniProt P28072); assay: Proteasome inhibition assay (20 S Proteasome Assay Kit, Z‐LLE‐AMC); type: biochemical; settings: c = 1 µM, n=1; read-out: Inhibition cCP β1
T3 construct: purchased Enzo Life Sciences
Method in brief: as §2

Danio rerio embryos [4] = assay: Danio rerio embryo toxicity assay (not dechorionated); type: in vivo
Protocol: Danio rerio embryo toxicity assay. Fish keeping protocols are approved by the Darmstadt administrative authority and documented. All fish were treated humanely. […] Embryos were decollated into separate wells containing a total volume of 200 μL and the inhibitor at the given concentration.

Danio rerio embryos [5] = assay: Danio rerio escape response (neurotoxicity) assay, dechorionated embryos; type: in vivo; settings: for Survived (embryos of 4): dechorionated
Protocol: Danio rerio escape response assay. 24 hours past fertilization embryos were dechorionated and transferred into 96‐well plates containing 198 μL of E3 media at 26 °C. […] Incubation times were 24 h, 48 h and 72 h. Survival of the embryos was determined by visual analysis of heart‐beat. For recording the touch evoked escape response, embryos were transferred to a microscopy slide with cavity that is placed on a SL‐300 LED Soft Light (Dörr, Neu‐Ulm, Germany) under a MotionBlitz EoSens mini1‐1 MC1370 high speed camera (Mikrotron, Unterschleißheim, Germany, Figure S18). An escape response was triggered by a touch stimulus at the trunk of embryos using a small sewing needle, which is slightly blunted. For each embryo, a maximum of 50 stimuli was applied. […] No escape response was determined if only one embryo was alive at 96 hpf. Movement was recorded at 96 hpf at 500 frames per second for 3 seconds using the MotionBlitzDirector 2 software. Determination of the amplitude α defined by the body angle spanned between the head, yolk and tail using a MATLAB‐based software tool and plotted using GraphPad Prism 7.02.

[6] = Danio rerio (zebrafish) embryos, in vivo
[7] = Danio rerio (zebrafish) embryos, in vivo, 24 h, 25 μM
[8] = Danio rerio (zebrafish) embryos, in vivo, 24 h, 50 µM
[9] = Danio rerio (zebrafish) embryos, in vivo, 48 h, 25 μM
[10] = Danio rerio, in vivo, 24 h, 25 µM
[11] = Danio rerio, in vivo, 24 h, 50 µM
[12] = Danio rerio, in vivo, 48 h, 25 µM

**Q.** What does the source list for `Cc1cc(C)c(Oc2ccccc2)cc1NC(=O)C(=O)[C@H](CC(C)C)NC(=O)[C@H](CC(C)C)NC(=O)[C@H](CC(C)C)NC(=O)c1cc(Cl)ccc1Cl` [Compound 27, 2,5‐Dichloro‐N‐((S)‐1‐(((S)‐1‐(((S)‐1‐((2,4‐dimethyl‐5‐phenoxyphenyl)amino)‐5‐methyl‐1,2‐dioxo‐hexan‐3‐yl)amino)‐4‐methyl‐1‐oxopentan‐2‐yl)amino)‐4‐methyl‐1‐oxopentan‐2‐yl)benzamide]?
**A.** IC50 (Jurkat cells): 11 ± 1 nM; IC50 (MV4‐11 cells): 7.4 ± 2.6 nM; IC50 (THP‐1 cells): 66 ± 1 nM; inhibition at 1 µM ([1]; c = 1 µM, n=1, read-out: Inhibition cCP β5): 91%; inhibition at 0.1 µM ([1]; c=100 nM, read-out: Rel. Inhibition β5c): 83%; IC50 ([1]; purified proteasome): 23 nM; Fold‐IC50 β5i/β5c ([1]; selectivity β5c over β5i): 4.2; inhibition at 1 µM ([2]; c = 1 µM, n=1, read-out: Inhibition iCP β5): 68%; inhibition at 0.1 µM ([2]; c=100 nM, read-out: Rel. Inhibition β5i): 58%; IC50 ([2]; purified proteasome): 96 nM; inhibition at 1 µM [3]: -48%; Survival of embryos (not dechorionated) (Danio rerio embryos [4]; 1 µM, 24 h): 100%; Survival of embryos (not dechorionated) (Danio rerio embryos [4]; 1 µM, 48 h): 100%; Survival of embryos (not dechorionated) (Danio rerio embryos [4]; 1 µM, 72 h): 100%; Survival of embryos (not dechorionated) (Danio rerio embryos [4]; 1 µM, 96 h): 100%; Survival of embryos (not dechorionated) (Danio rerio embryos [4]; 5 µM, 24 h): 100%; Survival of embryos (not dechorionated) (Danio rerio embryos [4]; 5 µM, 48 h): 100%; Survival of embryos (not dechorionated) (Danio rerio embryos [4]; 5 µM, 72 h): 100%; Survival of embryos (not dechorionated) (Danio rerio embryos [4]; 5 µM, 96 h): 100%; Survival of embryos (not dechorionated) (Danio rerio embryos [4]; 10 µM, 24 h): 100%; Survival of embryos (not dechorionated) (Danio rerio embryos [4]; 10 µM, 48 h): 100%; Survival of embryos (not dechorionated) (Danio rerio embryos [4]; 10 µM, 72 h): 100%; Survival of embryos (not dechorionated) (Danio rerio embryos [4]; 10 µM, 96 h): 100%; Survival of embryos (not dechorionated) (Danio rerio embryos [4]; 25 µM, 24 h): 100%; Survival of embryos (not dechorionated) (Danio rerio embryos [4]; 25 µM, 48 h): 100%; Survival of embryos (not dechorionated) (Danio rerio embryos [4]; 25 µM, 72 h): 100%; Survival of embryos (not dechorionated) (Danio rerio embryos [4]; 25 µM, 96 h): 100%; Fold-response (Danio rerio embryos [5]; [6]): 29; Relative reflexes / Stimuli, Mean (Danio rerio embryos [5]; [6]): 0,81; Number of movements per 100 ms, Difference between means (Danio rerio embryos [5]; [7]): 0,4767 ± 0,4422; Reflex Duration (Danio rerio embryos [5]; [7]): 295,3 ± 28,5 ms; Relative reflexes / Stimuli (Danio rerio embryos [5]; [7]): 1,000; mean reflexes per stimuli (Danio rerio embryos [5]; [7]): 100%; C-Bend Duration (Danio rerio embryos [5]; [8]): 19,2 ± 2,2 ms; Number of movements per 100 ms, Difference between means (Danio rerio embryos [5]; [8]): 0,4019 ± 0,4349; Number of total movements, Difference between means (Danio rerio embryos [5]; [8]): 16,56 ± 4,371; Relative reflexes / Stimuli (Danio rerio embryos [5]; [8]): 1,000; mean reflexes per stimuli (Danio rerio embryos [5]; [8]): 100%; Number of movements per 100 ms, Difference between means (Danio rerio embryos [5]; [9]): 0,545 ± 0,4127; Reflex Duration (Danio rerio embryos [5]; [9]): 403,6 ± 30,9 ms; Relative reflexes / Stimuli (Danio rerio embryos [5]; [9]): 0,545; mean reflexes per stimuli (Danio rerio embryos [5]; [9]): 55%; C-Bend Amplitude, Difference between means (Danio rerio embryos [5]; [10]): - 2,833 ± 19,93; C-Bend Duration (Danio rerio embryos [5]; [10]): 14 ± 0,8165 ms; C-Bend duration, Difference between means (Danio rerio embryos [5]; [10]): -5,667 ± 1,826; Number of total movements, Difference between means (Danio rerio embryos [5]; [10]): - 2,611 ± 3,6; Reflex Duration (Danio rerio embryos [5]; [10]): 295,3 ± 28,53 ms; Reflex Duration, Difference between means (Danio rerio embryos [5]; [10]): - 95,33 ± 66,93; C-Bend Amplitude, Difference between means (Danio rerio embryos [5]; [11]): - 7,333 ± 15,18; C-Bend Duration (Danio rerio embryos [5]; [11]): 19,17 ± 2,212 ms; C-Bend duration, Difference between means (Danio rerio embryos [5]; [11]): - 0,5 ± 2,458; Reflex Duration (Danio rerio embryos [5]; [11]): 799 ± 91,81 ms; Reflex Duration, Difference between means (Danio rerio embryos [5]; [11]): 408,3 ± 96,75; C-Bend Amplitude, Difference between means (Danio rerio embryos [5]; [12]): - 9,167 ± 17,34; C-Bend Duration (Danio rerio embryos [5]; [12]): 15,56 ± 0,5031 ms; C-Bend duration, Difference between means (Danio rerio embryos [5]; [12]): -4,111 ± 1,464; Number of total movements, Difference between means (Danio rerio embryos [5]; [12]): 1,889 ± 3,151; Reflex Duration (Danio rerio embryos [5]; [12]): 403,6 ± 30,92 ms; Reflex Duration, Difference between means (Danio rerio embryos [5]; [12]): 12,89 ± 59,4; overall survival at low doses (Danio rerio embryos [5]; dechorionated embryos): 58%; Survived (embryos of 4) (Danio rerio embryos [5]; 25 µM, 24 h): 2; Survived (embryos of 4) (Danio rerio embryos [5]; 25 µM, 48 h): 2; Survived (embryos of 4) (Danio rerio embryos [5]; 50 µM, 24 h): 3
